Results from publication PMC7316778 (Nature Communications, 2020).
“And” between values parts separate entries of the source, which are not always exact repeats. Equal values may be shown once. Read-outs that look alike come from different tables or passages of the source.

Key:
DAPK3 (ZIPK) = DAPK3 (ZIPK) (Homo sapiens, UniProt O43293); assay: SelectScreen kinase assay; conditions: for Inhibition at 1 µM (%): DAPK3 (ZIPK), ZLYTE, ATP Km app
Procedure: (§1) Selectivity profiling assays were performed by the Invitrogen SelectScreen™ Services. […] The concentration of ATP was selected to be equal to the KM, unless indicated otherwise.

SPHK2 = SPHK2 (Homo sapiens, UniProt Q9NRA0); assay: SelectScreen kinase assay
Procedure: as §1

STK25 (YSK1) = STK25 (YSK1) (Homo sapiens, UniProt O00506); assay: SelectScreen kinase assay
Procedure: as §1

STK17B (DRAK2) = molecular target: T1, STK17B (DRAK2) (Homo sapiens, UniProt O94768); assay: SelectScreen kinase assay
T1 sequence (O94768 1-372): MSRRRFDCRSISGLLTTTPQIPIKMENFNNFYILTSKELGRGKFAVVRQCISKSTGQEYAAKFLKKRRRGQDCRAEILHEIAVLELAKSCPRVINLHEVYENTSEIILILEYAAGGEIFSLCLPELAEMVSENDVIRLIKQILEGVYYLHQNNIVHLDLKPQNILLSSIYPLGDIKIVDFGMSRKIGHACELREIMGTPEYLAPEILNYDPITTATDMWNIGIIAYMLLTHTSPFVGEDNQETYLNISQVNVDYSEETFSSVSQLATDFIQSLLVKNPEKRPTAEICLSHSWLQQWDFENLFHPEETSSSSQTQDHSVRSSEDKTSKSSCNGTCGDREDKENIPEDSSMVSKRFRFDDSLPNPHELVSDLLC
Procedure: as §1

DYRK3 = DYRK3 (Homo sapiens, UniProt O43781); assay: SelectScreen kinase assay
Procedure: as §1

MAP4K4 (HGK) = MAP4K4 (HGK) (Homo sapiens, UniProt O95819); assay: SelectScreen kinase assay; conditions: 1 h, 1 μM WEL028, 1 h preincubation
Procedure: as §1

PI4KA (PI4K alpha) = PI4KA (PI4K alpha) (Homo sapiens, UniProt P42356); assay: SelectScreen kinase assay
Procedure: as §1

DNA-PK = DNA-PK (Homo sapiens, UniProt P78527); assay: SelectScreen kinase assay
Procedure: as §1

DCAMKL1 (DCLK1) = molecular target: T2, DCAMKL1 (DCLK1) (Homo sapiens, UniProt O15075); assay: SelectScreen kinase assay
T2 sequence (O15075 1-740): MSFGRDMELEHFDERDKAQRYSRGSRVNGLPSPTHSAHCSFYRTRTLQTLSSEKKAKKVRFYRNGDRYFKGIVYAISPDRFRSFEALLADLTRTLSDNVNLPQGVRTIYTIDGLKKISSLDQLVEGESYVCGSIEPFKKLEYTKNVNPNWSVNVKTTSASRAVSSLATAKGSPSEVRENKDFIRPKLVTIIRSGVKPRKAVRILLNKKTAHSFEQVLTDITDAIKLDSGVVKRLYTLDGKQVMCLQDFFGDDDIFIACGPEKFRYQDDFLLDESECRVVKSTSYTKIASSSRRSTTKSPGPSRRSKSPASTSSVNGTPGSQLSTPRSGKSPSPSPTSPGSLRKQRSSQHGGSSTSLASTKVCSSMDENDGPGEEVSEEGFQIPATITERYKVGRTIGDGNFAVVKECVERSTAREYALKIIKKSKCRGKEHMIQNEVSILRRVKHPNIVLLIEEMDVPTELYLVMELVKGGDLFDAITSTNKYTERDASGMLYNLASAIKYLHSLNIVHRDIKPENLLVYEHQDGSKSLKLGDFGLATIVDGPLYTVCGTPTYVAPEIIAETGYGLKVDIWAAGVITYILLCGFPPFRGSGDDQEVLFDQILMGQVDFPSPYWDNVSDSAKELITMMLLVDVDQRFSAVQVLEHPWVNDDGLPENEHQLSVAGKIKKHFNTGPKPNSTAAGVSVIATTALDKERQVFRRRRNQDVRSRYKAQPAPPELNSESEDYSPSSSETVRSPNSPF
Procedure: as §1

PRKCZ (PKC zeta) = molecular target: T3, PRKCZ (PKC zeta) (Homo sapiens, UniProt Q05513); assay: SelectScreen kinase assay; conditions: for Inhibition at 1 µM (%): PRKCZ (PKC zeta), ZLYTE, ATP Km app
T3 sequence (Q05513 1-592): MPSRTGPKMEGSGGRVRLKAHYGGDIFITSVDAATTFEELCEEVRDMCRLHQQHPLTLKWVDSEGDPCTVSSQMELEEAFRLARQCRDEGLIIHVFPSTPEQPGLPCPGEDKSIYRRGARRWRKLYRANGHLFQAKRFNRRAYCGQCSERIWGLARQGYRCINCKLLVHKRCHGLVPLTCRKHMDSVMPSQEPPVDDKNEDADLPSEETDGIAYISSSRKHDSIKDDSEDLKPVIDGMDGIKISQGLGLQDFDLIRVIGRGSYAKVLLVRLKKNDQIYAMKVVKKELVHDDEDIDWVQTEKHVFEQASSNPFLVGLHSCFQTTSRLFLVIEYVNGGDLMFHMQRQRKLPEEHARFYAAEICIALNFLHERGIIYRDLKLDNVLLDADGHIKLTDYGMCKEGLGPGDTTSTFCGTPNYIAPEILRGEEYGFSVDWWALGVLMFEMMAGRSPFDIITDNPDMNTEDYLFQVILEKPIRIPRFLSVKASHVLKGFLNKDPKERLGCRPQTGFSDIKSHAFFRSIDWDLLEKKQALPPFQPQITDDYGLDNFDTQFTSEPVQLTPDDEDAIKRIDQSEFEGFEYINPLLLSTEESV
Procedure: as §1

PRKCG (PKC gamma) = PRKCG (PKC gamma) (Homo sapiens, UniProt P05129); assay: SelectScreen kinase assay; conditions: for Inhibition at 1 µM (%): PRKCG (PKC gamma), ZLYTE, ATP Km app
Procedure: as §1

NEK7 = NEK7 (Homo sapiens, UniProt Q8TDX7); assay: SelectScreen kinase assay
Procedure: as §1

FES^S700C HL-60 cells = assay: Proliferation ratio during neutrophil differentiation; assay type: cell-based, human; conditions: 100 nM; Supplementary Figure 12d; individual replicates; listed as WEL028
[1] = 1 h, 1 μM WEL028, 1 h preincubation

Sequence of PI4KA (PI4K alpha) (P42356 whole entry): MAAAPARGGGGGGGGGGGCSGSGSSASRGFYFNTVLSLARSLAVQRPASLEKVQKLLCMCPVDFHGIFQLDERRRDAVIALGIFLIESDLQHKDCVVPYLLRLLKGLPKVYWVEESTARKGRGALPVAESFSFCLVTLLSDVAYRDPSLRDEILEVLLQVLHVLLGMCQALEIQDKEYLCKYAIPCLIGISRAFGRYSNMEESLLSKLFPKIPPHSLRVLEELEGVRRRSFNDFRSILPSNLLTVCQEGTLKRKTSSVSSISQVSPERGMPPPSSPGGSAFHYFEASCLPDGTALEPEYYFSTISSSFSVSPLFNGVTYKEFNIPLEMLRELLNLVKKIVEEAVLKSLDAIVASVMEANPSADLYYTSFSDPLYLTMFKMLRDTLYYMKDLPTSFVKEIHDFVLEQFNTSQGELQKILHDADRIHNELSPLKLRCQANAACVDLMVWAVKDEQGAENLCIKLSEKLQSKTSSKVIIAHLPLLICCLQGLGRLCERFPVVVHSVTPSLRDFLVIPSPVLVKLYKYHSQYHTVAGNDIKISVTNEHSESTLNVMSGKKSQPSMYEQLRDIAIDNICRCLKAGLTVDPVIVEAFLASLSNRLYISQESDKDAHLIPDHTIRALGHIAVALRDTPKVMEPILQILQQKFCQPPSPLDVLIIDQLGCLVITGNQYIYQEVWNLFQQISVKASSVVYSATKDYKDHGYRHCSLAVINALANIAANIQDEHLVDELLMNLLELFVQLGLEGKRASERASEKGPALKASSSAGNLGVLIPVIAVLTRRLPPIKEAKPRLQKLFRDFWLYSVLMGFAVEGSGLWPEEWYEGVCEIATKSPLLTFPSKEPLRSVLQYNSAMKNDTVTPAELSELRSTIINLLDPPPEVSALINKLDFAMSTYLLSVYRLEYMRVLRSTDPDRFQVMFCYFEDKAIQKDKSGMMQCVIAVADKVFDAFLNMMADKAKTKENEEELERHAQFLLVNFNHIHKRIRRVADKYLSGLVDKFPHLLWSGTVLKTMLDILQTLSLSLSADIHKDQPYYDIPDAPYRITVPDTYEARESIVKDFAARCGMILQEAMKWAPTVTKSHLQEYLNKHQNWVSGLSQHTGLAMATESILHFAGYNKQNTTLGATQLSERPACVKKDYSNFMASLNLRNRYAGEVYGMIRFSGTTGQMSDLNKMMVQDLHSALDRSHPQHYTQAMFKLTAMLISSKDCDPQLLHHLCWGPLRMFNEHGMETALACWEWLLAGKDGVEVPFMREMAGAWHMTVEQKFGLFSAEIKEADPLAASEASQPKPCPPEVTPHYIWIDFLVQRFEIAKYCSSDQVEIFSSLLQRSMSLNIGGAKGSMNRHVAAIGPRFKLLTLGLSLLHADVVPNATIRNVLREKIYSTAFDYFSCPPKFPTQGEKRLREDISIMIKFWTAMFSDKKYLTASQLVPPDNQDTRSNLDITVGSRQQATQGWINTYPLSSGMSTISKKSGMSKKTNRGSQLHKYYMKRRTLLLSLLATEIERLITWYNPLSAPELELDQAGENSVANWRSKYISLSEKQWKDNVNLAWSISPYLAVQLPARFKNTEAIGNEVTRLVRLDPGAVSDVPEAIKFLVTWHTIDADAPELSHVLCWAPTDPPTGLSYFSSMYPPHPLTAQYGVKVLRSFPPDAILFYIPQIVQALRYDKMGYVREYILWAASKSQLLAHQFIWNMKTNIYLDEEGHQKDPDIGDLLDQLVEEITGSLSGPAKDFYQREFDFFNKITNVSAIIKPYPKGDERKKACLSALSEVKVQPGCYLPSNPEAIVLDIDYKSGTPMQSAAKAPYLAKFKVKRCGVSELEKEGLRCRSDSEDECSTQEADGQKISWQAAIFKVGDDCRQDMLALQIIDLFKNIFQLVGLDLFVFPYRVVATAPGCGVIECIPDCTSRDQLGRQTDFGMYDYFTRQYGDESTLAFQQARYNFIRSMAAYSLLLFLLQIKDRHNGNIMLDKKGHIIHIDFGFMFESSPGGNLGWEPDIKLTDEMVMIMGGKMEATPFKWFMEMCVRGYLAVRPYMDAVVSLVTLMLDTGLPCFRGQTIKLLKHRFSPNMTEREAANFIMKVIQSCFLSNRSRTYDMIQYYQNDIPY
Sequence of DAPK3 (ZIPK) (O43293 whole entry): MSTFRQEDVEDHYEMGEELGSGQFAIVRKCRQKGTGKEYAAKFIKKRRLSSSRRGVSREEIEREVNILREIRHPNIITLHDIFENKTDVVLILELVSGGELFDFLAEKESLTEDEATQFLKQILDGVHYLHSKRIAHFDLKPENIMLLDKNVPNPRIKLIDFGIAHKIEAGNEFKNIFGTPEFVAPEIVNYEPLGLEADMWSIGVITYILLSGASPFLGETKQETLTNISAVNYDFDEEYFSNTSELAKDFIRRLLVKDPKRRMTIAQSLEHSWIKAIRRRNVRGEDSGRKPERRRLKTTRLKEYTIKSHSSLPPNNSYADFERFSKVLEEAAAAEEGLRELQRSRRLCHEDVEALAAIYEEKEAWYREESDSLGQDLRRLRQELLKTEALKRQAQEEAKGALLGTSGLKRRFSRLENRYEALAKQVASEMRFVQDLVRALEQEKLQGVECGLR
Sequence of DYRK3 (O43781 whole entry): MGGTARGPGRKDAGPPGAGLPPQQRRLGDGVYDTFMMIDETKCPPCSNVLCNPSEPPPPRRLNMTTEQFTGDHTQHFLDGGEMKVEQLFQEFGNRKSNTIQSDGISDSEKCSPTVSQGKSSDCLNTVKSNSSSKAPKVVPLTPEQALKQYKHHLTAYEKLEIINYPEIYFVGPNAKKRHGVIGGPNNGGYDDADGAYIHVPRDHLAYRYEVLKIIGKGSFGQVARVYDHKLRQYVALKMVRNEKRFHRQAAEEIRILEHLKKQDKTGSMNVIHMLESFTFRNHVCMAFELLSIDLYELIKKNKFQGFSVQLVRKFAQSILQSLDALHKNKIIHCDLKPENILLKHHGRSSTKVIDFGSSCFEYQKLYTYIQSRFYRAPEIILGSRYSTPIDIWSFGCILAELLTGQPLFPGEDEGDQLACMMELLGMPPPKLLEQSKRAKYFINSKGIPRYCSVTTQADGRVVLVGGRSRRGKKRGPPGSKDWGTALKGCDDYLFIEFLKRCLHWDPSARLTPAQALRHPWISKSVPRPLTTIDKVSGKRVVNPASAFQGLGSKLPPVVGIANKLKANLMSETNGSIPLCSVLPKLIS
Sequence of SPHK2 (Q9NRA0 whole entry): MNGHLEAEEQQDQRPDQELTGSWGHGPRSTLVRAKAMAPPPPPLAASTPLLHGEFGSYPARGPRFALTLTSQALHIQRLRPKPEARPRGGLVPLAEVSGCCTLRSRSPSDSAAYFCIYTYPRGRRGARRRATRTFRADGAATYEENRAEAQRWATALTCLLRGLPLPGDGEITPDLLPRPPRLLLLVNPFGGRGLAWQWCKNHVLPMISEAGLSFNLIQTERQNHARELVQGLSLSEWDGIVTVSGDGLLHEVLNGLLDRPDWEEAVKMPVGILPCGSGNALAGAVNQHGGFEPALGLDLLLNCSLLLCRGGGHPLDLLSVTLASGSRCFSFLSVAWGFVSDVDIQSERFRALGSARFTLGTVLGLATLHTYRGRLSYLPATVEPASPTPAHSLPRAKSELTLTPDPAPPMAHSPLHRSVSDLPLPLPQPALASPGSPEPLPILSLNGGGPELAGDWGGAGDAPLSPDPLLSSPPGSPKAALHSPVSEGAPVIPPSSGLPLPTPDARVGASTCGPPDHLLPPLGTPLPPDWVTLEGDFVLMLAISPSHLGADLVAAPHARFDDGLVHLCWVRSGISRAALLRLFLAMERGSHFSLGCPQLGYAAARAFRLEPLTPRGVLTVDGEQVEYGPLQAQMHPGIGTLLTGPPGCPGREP
Sequence of STK25 (YSK1) (O00506 whole entry): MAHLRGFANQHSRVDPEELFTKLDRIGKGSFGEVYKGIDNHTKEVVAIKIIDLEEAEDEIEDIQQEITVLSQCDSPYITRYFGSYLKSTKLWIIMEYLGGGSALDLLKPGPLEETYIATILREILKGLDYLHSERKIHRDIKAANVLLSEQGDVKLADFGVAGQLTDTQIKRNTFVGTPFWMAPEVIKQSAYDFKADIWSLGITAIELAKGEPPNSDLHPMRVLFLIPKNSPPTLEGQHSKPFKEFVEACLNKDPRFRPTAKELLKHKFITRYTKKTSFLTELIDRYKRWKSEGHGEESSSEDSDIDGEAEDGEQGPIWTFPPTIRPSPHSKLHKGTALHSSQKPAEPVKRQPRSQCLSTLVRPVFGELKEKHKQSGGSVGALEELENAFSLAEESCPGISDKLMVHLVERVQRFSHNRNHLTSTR

C#CCOc1ccc(Nc2ncc(Cl)c(Nc3ccccc3NC(=O)C=C)n2)c(OC)c1 [Compound 6]
inhibition at 1 µM (DAPK3 (ZIPK); [1]): 4%
Inhibition at 1 µM (%) (DAPK3 (ZIPK)): 2%
Inhibition at 1 µM (%) (DAPK3 (ZIPK); listed as WEL028, 1 µM): 5%
Inhibition at 1 µM (%) (SPHK2; 1 µM, Adapta, ATP 10, listed as WEL028, 1 µM): 5% and 1%
inhibition at 1 µM (SPHK2; [1]): 3%
Inhibition at 1 µM (%) (STK25 (YSK1); 1 µM, ZLYTE, ATP Km app): 15%
inhibition at 1 µM (STK25 (YSK1); [1]): 5%
Inhibition at 1 µM (%) (STK17B (DRAK2); 1 µM, LanthaScreen Binding, listed as WEL028, 1 µM): 8%
inhibition at 1 µM (STK17B (DRAK2); [1]): 9%
inhibition at 1 µM (STK17B (DRAK2); read-out: Inhibition at 1 µM (%), 1 µM, LanthaScreen Binding): 9%
inhibition at 1 µM (DYRK3; [1]): 2%
Inhibition at 1 µM (%) (DYRK3; DYRK3, 1 µM, ZLYTE, ATP Km app, listed as WEL028, 1 µM): 0% and 4%
inhibition at 1 µM (MAP4K4 (HGK)): 7%
inhibition at 1 µM (PI4KA (PI4K alpha); [1]): 7%
Inhibition at 1 µM (%) (PI4KA (PI4K alpha); PI4KA (PI4K alpha), 1 µM, Adapta, ATP 10, listed as WEL028, 1 µM): 3% and 11%
inhibition at 1 µM (DNA-PK; [1]): 6%
Inhibition at 1 µM (%) (DNA-PK; DNA-PK, 1 µM, ZLYTE, ATP Km app, listed as WEL028, 1 µM): 8%
inhibition at 1 µM (DNA-PK; read-out: Inhibition at 1 µM (%), DNA-PK, 1 µM, ZLYTE, ATP Km app): 4%
Inhibition (%) (DCAMKL1 (DCLK1); 1 μM WEL028, 1 h preincubation): 4%
Inhibition at 1 µM (%) (DCAMKL1 (DCLK1); DCAMKL1 (DCLK1), 1 µM, ZLYTE, ATP Km app, listed as WEL028, 1 µM): 5%
inhibition at 1 µM (DCAMKL1 (DCLK1); read-out: Inhibition at 1 µM (%), DCAMKL1 (DCLK1), 1 µM, ZLYTE, ATP Km app): 3%
inhibition at 1 µM (PRKCZ (PKC zeta); [1]): -1%
Inhibition at 1 µM (%) (PRKCZ (PKC zeta)): 3%
Inhibition at 1 µM (%) (PRKCZ (PKC zeta); listed as WEL028, 1 µM): -5%
inhibition at 1 µM (PRKCG (PKC gamma); [1]): 1%
Inhibition at 1 µM (%) (PRKCG (PKC gamma)): -3%
Inhibition at 1 µM (%) (PRKCG (PKC gamma); listed as WEL028, 1 µM): 5%
inhibition at 1 µM (NEK7; [1]): -3%
Inhibition at 1 µM (%) (NEK7; NEK7, 1 µM, ZLYTE, ATP Km app, listed as WEL028, 1 µM): -2%
Proliferation ratio (FES^S700C HL-60 cells): 1.625 and 1.925 and 1.9
